What was measured:
[1] = tested on: colonocyte cell line Caco2; experiment: MTT viability assay of Caco2 cells; assay type: cell-based; conditions: 45 mM, 48 h
Method: A higher OD value represents greater viability.
The inventors determined to what extent the C5, C6 and C7 chain length fatty acids affect viability of the colonocyte cell line Caco2. Caco2 cells were grown until confluent in DMEM with serum and then trypsinised and diluted to 10^5 cells per ml and re-seeded into a 24 well plate and allowed to grow for a further 48 hours. At this point they were exposed to a 45 mM concentration of the SCFA or MCFA for 48 h and viability assessed using an MT assay.

C. difficile = experiment: Growth inhibition of C. difficile with 20 mM short or medium chain fatty acids; assay type: cell-based, Clostridioides difficile; conditions: 20 mM fatty acid
Text: Acetate is a C2 chain and they increase by one carbon until heptanoate is reached which is C7.
The inventors assessed a range of short/medium chain fatty acids (S/MCFA).

[2] = tested on: 6 strains of C. difficile; experiment: Valerate inhibition of 6 strains of C. difficile (change in OD600); assay type: cell-based, Clostridioides difficile; conditions: 0, 5, 10, 20 mM valerate
Text: Error bars represent mean±SD. **p<0.01;[…] (ANOVA and Tukey post hoc test), N=12.
As there are many strains of the C. difficile pathogen, the inventors extended the range of strains to determine how valerate inhibited growth (FIG. 32), and have also assessed the ability of valerate to target other species of bacteria (FIG. 33).

CD010 = experiment: Isovalerate inhibition of C. difficile growth; assay type: cell-based, Clostridioides difficile; conditions: strain CD010
Text: (§1) The inventors tested the ability of isovalerate to inhibit C. difficile growth (FIG. 36).

CD012 = experiment: Isovalerate inhibition of C. difficile growth; assay type: cell-based, Clostridioides difficile; conditions: strain CD012
Text: as §1

Bacteroides uniformis = experiment: Batch cultures of gut commensal with valerate (OD600); assay type: cell-based; conditions: only concentration that inhibited, p=0.026
Method: (§2) Vegetative cells were inoculated into sBHI broth containing varying concentrations of valerate (o, 1, 2, 3, 4, 5, 10, and 20 mM) and OD600 measurements were taken at 0, 2, 4, 6, and 8 hours. The change in OD600 (from a time point during the exponential phase) was plotted against the concentrations of valerate tested. (a) C. difficile ribotype 010, (b) C. difficile ribotype 012, (c) C. difficile ribotype 027, (d) Bacteroides uniformis, (e) Bacteroides vulgatus, (f) Clostridium scindens. Error bars represent the mean standard deviation, * p<0.05, ** p<0.01, *** p<0.001.
(§3) The inventors tested the effects of valerate (Fisher Scientific) on the vegetative growth of three C. difficile ribotypes (010, 012, and 027) as well as several gut commensal bacteria (Bacteroides uniformis, Bacteroides vulgatus, and Clostridium scindens). […] The inventors plotted the changes in OD600 (from a time point during the exponential phase) against each concentration of valerate tested. The inventors used ANOVA and Tukey post hoc test to determine whether the concentration of valerate tested affected the growth of the test isolate compared to batch cultures grown in the absence of valerate.
(§4) C. difficile DS1684 (ribotype 010, non-toxigenic strain) was used for chemostat model experiments. C. difficile DS1684, C. difficile CD630 (ribotype 012, virulent multidrug resistant strain), C. difficile R20291 (ribotype 027, a hypervirulent strain), Bacteroides uniformis, Bacteroides vulgatus, and Clostridium scindens (DSM 5676) were used in batch culture experiments. C. difficile ribotype 027 is a common ribotype in Europe and North America,^1-3 while ribotype 012 is one of the common ribotypes in mainland China.^4,5 CD630 and R20291 are genetically and phenotypically well-characterised and are good representatives of their ribotypes.^6 B. uniformis and B. vulgatus were isolated from the stool of a healthy person using fastidious anaerobe agar (Lab M, Heywood, UK) or nutrient agar (Sigma-Aldrich, St. Louis, USA), respectively.

Clostridium scindens = experiment: as above; assay type: cell-based; conditions: 0-20 mM valerate tested, p>0.05
Method: as §2, §3, §4

Bacteroides vulgatus = experiment: as above; assay type: cell-based
Method: as §2, §3, §4

[3] = tested on: C. difficile ribotype 027; experiment: C. difficile batch cultures, vegetative growth with valerate (OD600); assay type: cell-based, Clostridioides difficile; conditions: sBHI broth pH 6.8, p=0.008
Method: as §2, §3, §4

[4] = tested on: C. difficile ribotype 012; experiment: as above; assay type: cell-based, Clostridioides difficile; conditions: sBHI broth pH 6.8, p=0.003
Method: as §2, §3, §4

[5] = tested on: C. difficile ribotype 010; experiment: as above; assay type: cell-based, Clostridioides difficile; conditions: sBHI broth pH 6.8, p=0.008
Method: as §2, §3, §4

gut organoids = conditions: 5 mM valerate; personal communication; cited from earlier work
CD 027 = experiment: Isovalerate inhibition of C. difficile growth; assay type: cell-based, Clostridioides difficile; conditions: strain CD 027
Text: as §1

| SMILES | viability of colonocytes [1] | inhibition of C. difficile growth (C. difficile) | potency at inhibiting growth relative to valerate (C. difficile) | viability of colonocytes ([1]; listed as C6) | inhibition of growth of C. difficile strains [2] | inhibition of C. difficile growth (CD010) | inhibition of C. difficile growth (CD012) | valerate concentration inhibiting growth (Bacteroides uniformis) | inhibition of growth by valerate (Clostridium scindens) | inhibition of growth by valerate (Bacteroides vulgatus; 0-20 mM valerate tested) | growth in broths containing valerate (Bacteroides vulgatus; 10 mM (p=0.020) or 20 mM (p=0.019) valerate) | valerate concentration inhibiting vegetative growth [3] | valerate concentration inhibiting vegetative growth [4] | valerate concentration inhibiting vegetative growth [5] | cell death / alterations in gene expression (gut organoids) | inhibition of C. difficile growth (CD 027) |
| --- | --- | --- | --- | --- | --- | --- | --- | --- | --- | --- | --- | --- | --- | --- | --- | --- |
| CCCCCCC(=O)O [heptanoate, heptanoic acid] | do not significantly decrease | potent inhibitors | significantly more potent |  |  |  |  |  |  |  |  |  |  |  |  |  |
| CCCCCC(=O)O [hexanoate, hexanoic acid] | significantly increased | potent inhibitors | significantly more potent | do not significantly decrease |  |  |  |  |  |  |  |  |  |  |  |  |
| CCCCC(=O)O [valerate, valeric acid] | do not significantly decrease | potent inhibitors |  |  | effective against all strains | inhibited to a greater extent | inhibited to a greater extent | 20 mM | not inhibited at any concentration | not inhibited at any concentration | grew better | 2 mM | 2 mM | 4 mM | did not result in cell death or cause significant alterations in gene expression |  |
| CC(C)CC(=O)O [isovalerate] |  |  |  |  |  | significant ability to inhibit growth | significant ability to inhibit growth |  |  |  |  |  |  |  |  | comparable to valerate |
